Test results from patent US20180318287A1, “Imidazo[4,5-c]quinolin-2-one Compounds and Their Use in Treating Cancer” (ASTRAZENECA AB, priority 2015, published 2018).
Like-named read-outs stand apart in the source and are kept apart here.

Columns and labels:
Assay type in all cases: cell-based
ATR kinase = target: T1, ATR kinase (Homo sapiens, UniProt Q13535); experiment: Assay b): ATR cellular potency (pChk1 Ser345 in HT29 cells after 4NQO)
T1 construct: endogenous in cells; host or cells: HT29 cells (ECACC #85061109)
Summary of the method: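 HT29 cells were preincubated with compound for 1 h at 37 °C, 5% CO2, then stimulated with 4NQO for a further 1 h; wells without 4NQO served as the null control. Cells permeabilised with 0.1% Triton X-100. Chk1 Ser345 phosphorylation imaged on ArrayScan VTI at 10× objective.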

PI3K-α = PI3K-α (Homo sapiens, UniProt P42336); experiment: Assay c): PI3K cellular potency (phospho-Akt T308 ELISA in BT474 cells); settings: for Assay c) PI3Ka Cell IC50: BT474 cells, phospho-Akt T308, 2 h, Table 3 comparative data; for IC50: BT474 cells, phospho-Akt T308, 2 h; Table 2; read-out: Assay c) PI3Kα Cell IC50
Excerpt: This assay was used to measure PI3K-α inhibition in cells. PDK1 was identified as the upstream activation loop kinase of protein kinase B (Akt1), which is essential for the activation of PKB. Activation of the lipid kinase phosphoinositide 3 kinase (PI3K) is critical for the activation of PKB by PDK1.
Following ligand stimulation of receptor tyrosine kinases, PI3K is activated, which converts PIP2 to PIP3, which is bound by the PH domain of PDK1 resulting in recruitment of PDK1 to the plasma membrane where it phosphorylates AKT at Thr308 in the activation loop.
The aim of this cell-based mode of action assay is to identify compounds that inhibit PDK activity or recruitment of PDK1 to membrane by inhibiting PI3K activity. Phosphorylation of phospho-Akt (T308) in BT474c cells following treatment with compounds for 2 h is a direct measure of PDK1 and indirect measure of PI3K activity.
BT474 cells (human breast ductal carcinoma, ATCC HTB-20) were seeded into black 384 well plates (Costar, #3712) at a density of 5600 cells/well in DMEM containing 10% FBS and 1% glutamine and allowed to adhere overnight.
The following morning compounds in 100% DMSO were added to assay plates by acoustic dispensing. After a 2 h incubation at 37° C. and 5% CO2, the medium was aspirated and the cells were lysed with a buffer containing 25 mM Tris, 3 mM EDTA, 3 mM EGTA, 50 mM sodium fluoride, 2 mM Sodium orthovanadate, 0.27M sucrose, 10 mM β-glycerophosphate, 5 mM sodium pyrophosphate, 0.5% Triton X-100 and complete protease inhibitor cocktail tablets (Roche #04 693 116 001, used 1 tab per 50 ml lysis buffer).
After 20 minutes, the cell lysates were transferred into ELISA plates (Greiner #781077) which had been pre-coated with an anti total-AKT antibody in PBS buffer and non-specific binding was blocked with 1% BSA in PBS containing 0.05% Tween 20. Plates were incubated over night at 4° C. The next day the plates were washed with PBS buffer containing 0.05% Tween 20 and further incubated with a mouse monoclonal anti-phospho AKT T308 for 2 h. Plates were washed again as above before addition of a horse anti-mouse-HRP conjugated secondary antibody. Following a 2 h incubation at r.t., plates were washed and QuantaBlu substrate working solution (Thermo Scientific #15169, prepared according to provider's instructions) was added to each well. The developed fluorescent product was stopped after 60 minutes by addition of Stop solution to the wells. Plates were read using a Tecan Safire plate reader using 325 nm excitation and 420 nm emission wavelengths respectively. Except where specified, reagents contained in the Path Scan Phospho AKT (Thr308) sandwich ELISA kit from Cell Signalling (#7144) were used in this ELISA assay.

mTOR = target: T2, mTOR (Homo sapiens, UniProt P42345); experiment: Assay d): mTOR cellular potency (phospho-AKT Ser473 in MDA-MB-468 cells)
T2 construct: phosphorylation of the Akt protein at Ser473 (AKT lies downstream of PI3Kα in the signal transduction pathway) in the MDA-MB-468 cells; endogenous in cells; host or cells: MDA-MB-468 cells (ATCC HTB 132)
Protocol: This assay was used to measure mTOR inhibition in cells. The aim of the phospho-AKT cell based mechanism of action assay using the Acumen Explorer is to identify inhibitors of either PI3Kα or mTOR-Rictor (Rapamycin insensitive companion of mTOR). This is measured by any decrease in the phosphorylation of the Akt protein at Ser473 (AKT lies downstream of PI3Kα in the signal transduction pathway) in the MDA-MB-468 cells following treatment with compound.
MDA-MB-468 cells (human breast adenocarcinoma #ATCC HTB 132) were seeded at 1500 cells/well in 40 μl of DMEM containing 10% FBS and 1% glutamine into Greiner 384 well black flat-bottomed plates. Cell plates were incubated for 18 h in a 37° C. incubator before dosing with compounds of Formula (I) in 100% DMSO using acoustic dispensing. Compounds were dosed in a 12 point concentration range into a randomised plate map. Control wells were generated either by dosing of 100% DMSO (max signal) or addition of a reference compound (a PI3K-βinhibitor) that completely eliminated the pAKT signal (min control). Plates were incubated at 37° C. for 2 h; cells were then fixed by the addition of 10 μl of a 3.7% formaldehyde solution. After 30 minutes the plates were washed with PBS using a Tecan PW384 plate washer. Wells were blocked and cells permeabilised with the addition of 40 μl of PBS containing 0.5% Tween20 and 1% Marvel™ (dried milk powder) and incubated for 60 minutes at r.t. The plates were washed with PBS containing 0.5% (v/v) Tween20 and 20 μl rabbit anti-phospho AKT Ser473 (Cell Signalling Technologies, #3787) in same PBS-Tween+1% Marvel™ was added and incubated overnight at 4° C.
Plates were washed 3 times with PBS+0.05% Tween 20 using a Tecan PW384. 20 μl of secondary antibody Alexa Fluor 488 anti-Rabbit (Molecular Probes, #A11008) diluted in PBS+0.05% Tween20 containing 1% Marvel™ was added to each well and incubated for 1 h at r.t. Plates were washed three times as before then 20 μl PBS added to each well and plates sealed with a black plate sealer.
The plates were read on an Acumen plate reader as soon as possible, measuring green fluorescence after excitation with 488 nm laser. Using this system IC50 values were generated and quality of plates was determined by control wells. Reference compounds were run each time to monitor assay performance.

ATM kinase = target: T3, ATM kinase (Homo sapiens, UniProt Q13315); experiment: Assay a): ATM cellular potency (pATM Ser1981 in irradiated HT29 cells)
T3 construct: endogenous in cells; host or cells: HT29 cells (ECACC #85061109)
Summary of the method: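 HT29 cells pretreated with compound for 1 h at 37° C, X-ray irradiated (~600 cGy), then incubated 1 h more. Cells fixed, Triton-permeabilised and immunostained for pATM Ser1981; fluorescence quantified by ArrayScan high-content imaging.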

[1] = HT29 cells, 4NQO, pChk1 Ser345; Table 3 comparative data; read-out: Assay b) ATR Cell IC50
[2] = MDA-MB-468 cells, phospho-AKT Ser473, 2 h; Table 3 comparative data; read-out: Assay d) mTOR Cell IC50
[3] = HT29 cells, X-ray irradiation, pATM Ser1981; Table 3 comparative data; read-out: Assay a) ATM Cell IC50
[4] = HT29 cells, X-ray irradiation, pATM Ser1981; Table 2; read-out: Assay a) ATM Cell IC50
[5] = HT29 cells, 4NQO, pChk1 Ser345; Table 2; read-out: Assay b) ATR Cell IC50
[6] = MDA-MB-468 cells, phospho-AKT Ser473, 2 h; Table 2; read-out: Assay d) mTOR Cell IC50

T3 sequence (Q13315 whole entry): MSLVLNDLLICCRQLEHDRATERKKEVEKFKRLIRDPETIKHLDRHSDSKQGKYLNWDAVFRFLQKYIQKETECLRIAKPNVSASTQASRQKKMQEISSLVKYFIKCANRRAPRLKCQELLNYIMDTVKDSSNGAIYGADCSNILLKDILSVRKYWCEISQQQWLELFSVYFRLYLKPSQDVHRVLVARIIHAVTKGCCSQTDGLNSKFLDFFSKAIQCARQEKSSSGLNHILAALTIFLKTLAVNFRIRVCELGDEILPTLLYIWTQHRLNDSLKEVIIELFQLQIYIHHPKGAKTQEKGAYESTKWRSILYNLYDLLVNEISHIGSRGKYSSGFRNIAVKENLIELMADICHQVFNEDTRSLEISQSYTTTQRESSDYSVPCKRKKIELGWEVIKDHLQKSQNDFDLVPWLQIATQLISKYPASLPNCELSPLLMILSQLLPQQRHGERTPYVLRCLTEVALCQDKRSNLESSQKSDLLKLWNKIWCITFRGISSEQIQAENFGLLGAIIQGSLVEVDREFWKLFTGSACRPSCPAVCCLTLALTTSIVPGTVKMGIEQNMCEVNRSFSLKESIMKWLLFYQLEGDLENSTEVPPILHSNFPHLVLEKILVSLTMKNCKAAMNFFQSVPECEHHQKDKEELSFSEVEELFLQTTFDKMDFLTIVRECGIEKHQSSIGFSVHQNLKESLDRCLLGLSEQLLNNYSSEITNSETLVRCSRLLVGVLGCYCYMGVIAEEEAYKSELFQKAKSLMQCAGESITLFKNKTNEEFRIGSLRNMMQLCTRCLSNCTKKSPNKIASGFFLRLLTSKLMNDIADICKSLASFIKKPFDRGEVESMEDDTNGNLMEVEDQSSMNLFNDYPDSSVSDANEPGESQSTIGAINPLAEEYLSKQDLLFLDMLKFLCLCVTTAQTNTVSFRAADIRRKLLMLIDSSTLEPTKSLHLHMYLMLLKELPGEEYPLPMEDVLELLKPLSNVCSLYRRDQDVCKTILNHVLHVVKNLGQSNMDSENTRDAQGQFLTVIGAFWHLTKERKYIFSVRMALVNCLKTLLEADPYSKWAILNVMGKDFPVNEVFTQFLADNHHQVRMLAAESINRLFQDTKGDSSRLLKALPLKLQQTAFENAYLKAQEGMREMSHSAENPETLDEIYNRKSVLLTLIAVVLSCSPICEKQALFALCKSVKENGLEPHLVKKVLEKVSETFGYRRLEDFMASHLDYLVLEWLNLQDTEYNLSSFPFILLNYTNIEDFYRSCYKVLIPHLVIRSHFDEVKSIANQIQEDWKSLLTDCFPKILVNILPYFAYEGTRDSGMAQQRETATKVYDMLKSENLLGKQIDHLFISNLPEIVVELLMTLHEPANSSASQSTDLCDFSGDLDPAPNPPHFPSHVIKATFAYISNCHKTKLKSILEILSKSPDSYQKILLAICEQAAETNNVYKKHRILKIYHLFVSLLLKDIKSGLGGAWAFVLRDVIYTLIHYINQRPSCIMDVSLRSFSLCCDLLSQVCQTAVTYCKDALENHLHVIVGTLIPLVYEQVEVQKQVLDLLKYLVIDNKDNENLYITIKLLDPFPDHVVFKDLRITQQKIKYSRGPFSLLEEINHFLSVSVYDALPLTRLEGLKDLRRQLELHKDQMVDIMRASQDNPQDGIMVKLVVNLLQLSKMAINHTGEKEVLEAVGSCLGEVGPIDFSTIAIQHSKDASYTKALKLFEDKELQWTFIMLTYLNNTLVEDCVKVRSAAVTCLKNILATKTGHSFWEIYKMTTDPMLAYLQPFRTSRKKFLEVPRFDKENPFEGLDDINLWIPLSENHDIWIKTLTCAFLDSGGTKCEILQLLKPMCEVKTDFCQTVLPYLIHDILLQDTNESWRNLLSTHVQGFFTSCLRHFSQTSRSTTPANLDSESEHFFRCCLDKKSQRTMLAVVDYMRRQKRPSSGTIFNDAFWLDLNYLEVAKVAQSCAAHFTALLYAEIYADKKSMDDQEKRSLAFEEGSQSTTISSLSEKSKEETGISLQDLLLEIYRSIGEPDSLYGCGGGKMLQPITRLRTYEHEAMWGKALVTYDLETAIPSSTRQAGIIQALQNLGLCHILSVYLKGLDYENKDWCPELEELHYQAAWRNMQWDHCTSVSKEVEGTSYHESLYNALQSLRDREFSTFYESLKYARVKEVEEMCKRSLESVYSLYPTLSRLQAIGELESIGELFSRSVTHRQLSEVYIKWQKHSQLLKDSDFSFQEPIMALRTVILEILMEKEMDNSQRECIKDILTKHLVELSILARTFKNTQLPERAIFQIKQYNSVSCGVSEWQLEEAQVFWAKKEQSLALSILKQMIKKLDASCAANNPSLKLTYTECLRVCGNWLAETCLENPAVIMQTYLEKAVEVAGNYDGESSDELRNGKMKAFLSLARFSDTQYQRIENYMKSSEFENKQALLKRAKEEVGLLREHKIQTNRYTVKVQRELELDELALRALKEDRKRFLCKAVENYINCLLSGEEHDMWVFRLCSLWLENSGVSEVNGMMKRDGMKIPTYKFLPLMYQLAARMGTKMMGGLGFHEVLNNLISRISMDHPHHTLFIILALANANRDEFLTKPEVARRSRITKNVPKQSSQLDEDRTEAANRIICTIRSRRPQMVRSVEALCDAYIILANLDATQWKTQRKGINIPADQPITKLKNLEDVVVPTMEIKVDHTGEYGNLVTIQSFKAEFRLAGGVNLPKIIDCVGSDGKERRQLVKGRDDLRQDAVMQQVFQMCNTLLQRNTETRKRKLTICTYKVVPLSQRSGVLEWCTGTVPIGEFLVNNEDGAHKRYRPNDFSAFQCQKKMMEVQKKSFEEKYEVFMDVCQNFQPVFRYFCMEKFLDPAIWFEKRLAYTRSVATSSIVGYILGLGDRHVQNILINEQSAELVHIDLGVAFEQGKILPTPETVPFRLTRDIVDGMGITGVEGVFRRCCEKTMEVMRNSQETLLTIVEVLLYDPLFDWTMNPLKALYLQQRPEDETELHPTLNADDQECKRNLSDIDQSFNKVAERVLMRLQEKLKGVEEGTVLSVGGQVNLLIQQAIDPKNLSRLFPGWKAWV
Chain of PI3K-α (P42336 whole entry): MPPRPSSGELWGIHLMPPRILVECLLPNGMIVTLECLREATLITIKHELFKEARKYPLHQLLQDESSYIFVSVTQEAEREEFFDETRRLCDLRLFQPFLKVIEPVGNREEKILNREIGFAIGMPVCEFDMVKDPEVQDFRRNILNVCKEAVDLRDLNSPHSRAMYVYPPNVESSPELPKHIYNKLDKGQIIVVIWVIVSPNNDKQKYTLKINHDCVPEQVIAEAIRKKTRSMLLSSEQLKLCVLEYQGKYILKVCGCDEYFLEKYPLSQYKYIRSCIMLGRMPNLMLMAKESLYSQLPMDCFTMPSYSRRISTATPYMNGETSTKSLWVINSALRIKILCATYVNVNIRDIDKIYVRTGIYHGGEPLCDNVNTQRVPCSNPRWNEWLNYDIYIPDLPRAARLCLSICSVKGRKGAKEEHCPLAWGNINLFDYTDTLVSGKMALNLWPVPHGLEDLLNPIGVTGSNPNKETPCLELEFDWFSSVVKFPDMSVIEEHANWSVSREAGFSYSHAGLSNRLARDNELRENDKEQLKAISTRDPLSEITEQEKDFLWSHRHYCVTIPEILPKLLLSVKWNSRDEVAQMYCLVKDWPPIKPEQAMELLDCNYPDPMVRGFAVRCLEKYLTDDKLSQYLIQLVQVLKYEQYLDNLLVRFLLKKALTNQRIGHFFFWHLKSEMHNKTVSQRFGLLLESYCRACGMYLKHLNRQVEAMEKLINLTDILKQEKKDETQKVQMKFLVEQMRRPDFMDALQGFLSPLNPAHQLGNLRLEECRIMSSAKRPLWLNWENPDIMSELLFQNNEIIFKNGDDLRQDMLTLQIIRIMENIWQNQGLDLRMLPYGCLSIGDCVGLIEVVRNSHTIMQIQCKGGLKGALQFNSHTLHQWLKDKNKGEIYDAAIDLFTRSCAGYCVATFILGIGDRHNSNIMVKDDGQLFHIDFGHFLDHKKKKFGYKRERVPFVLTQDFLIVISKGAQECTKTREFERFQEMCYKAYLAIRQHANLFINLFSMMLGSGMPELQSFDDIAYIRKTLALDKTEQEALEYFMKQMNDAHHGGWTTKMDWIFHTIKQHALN
Chain of PI3K-α (P27986 2-724, further chain): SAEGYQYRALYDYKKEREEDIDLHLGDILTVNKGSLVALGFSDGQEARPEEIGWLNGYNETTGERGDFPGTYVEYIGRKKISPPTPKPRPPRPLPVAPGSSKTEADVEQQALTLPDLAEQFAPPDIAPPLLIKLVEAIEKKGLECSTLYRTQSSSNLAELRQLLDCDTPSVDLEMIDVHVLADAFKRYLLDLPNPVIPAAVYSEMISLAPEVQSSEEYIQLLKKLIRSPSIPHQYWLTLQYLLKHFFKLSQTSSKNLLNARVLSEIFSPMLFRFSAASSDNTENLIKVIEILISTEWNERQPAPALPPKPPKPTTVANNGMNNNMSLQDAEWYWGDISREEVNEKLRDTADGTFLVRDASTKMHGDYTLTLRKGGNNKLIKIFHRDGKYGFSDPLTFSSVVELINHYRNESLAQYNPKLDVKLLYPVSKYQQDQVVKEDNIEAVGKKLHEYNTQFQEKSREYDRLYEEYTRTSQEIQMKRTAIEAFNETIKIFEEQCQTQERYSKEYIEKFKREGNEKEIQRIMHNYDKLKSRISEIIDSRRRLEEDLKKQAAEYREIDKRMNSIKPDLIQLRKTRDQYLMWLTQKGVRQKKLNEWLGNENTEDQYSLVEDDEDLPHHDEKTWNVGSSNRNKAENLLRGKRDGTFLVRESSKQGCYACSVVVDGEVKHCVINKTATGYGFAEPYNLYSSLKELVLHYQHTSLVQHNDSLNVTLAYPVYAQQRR

| IC50 (ATM kinase; [4]) [nM] | IC50 (ATR kinase; [5]) [nM] | IC50 (PI3K-α) [nM] | IC50 (mTOR; [6]) [nM] | Structure (SMILES) | IC50 (ATR kinase; [1]) [nM] | Assay c) PI3Ka Cell IC50 (PI3K-α) [nM] | IC50 (mTOR; [2]) [nM] | IC50 (ATM kinase; [3]) [nM] |
| --- | --- | --- | --- | --- | --- | --- | --- | --- |
|  |  |  |  | COc1ccc(-c2ccc3ncc4c(c3c2)n(C2CCNCC2)c(=O)n4C)cn1 [CN102372711A Compound 1, reference compound] | 281 | 188 | 237 |  |
|  |  |  |  | COc1ccc(-c2ccc3ncc4c(c3c2)n(C2CCN(C(C)=O)CC2)c(=O)n4C)cn1 [CN102372711A Compound 5, reference compound] | 64.4 | 153 | 113 | 26.5 |
|  |  |  |  | Cn1c(=O)n(C2CNC2)c2c3cc(-c4cnc5[nH]ccc5c4)ccc3ncc21 [CN102399218A Compound 61, reference compound] | 1480 | 1730 | 177 | 3460 |
|  |  |  |  | Cn1c(=O)n(C2CC2)c2c3cc(-c4cnc5[nH]ccc5c4)ccc3ncc21 [CN102399218A Compound 62, reference compound] | 56.3 | 149 | 15.5 | 80 |
|  |  |  |  | Cn1c(=O)n(C2CC2)c2c3cc(-c4cnc(N)nc4)ccc3ncc21 [CN102399218A Compound 64, reference compound] | 162 | 247 | 287 | 216 |
|  |  |  |  | Cn1c(=O)n(C2CCOCC2)c2c3cc(-c4cnc(N)nc4)ccc3ncc21 [CN102399218A Compound 94, reference compound] | 12.9 | 80.4 | 41.4 | 494 |
|  |  |  |  | COc1ncc(-c2ccc3ncc4c(c3c2)n(C2CC2)c(=O)n4C)cc1NS(=O)(=O)C1CC1 [CN102399218A Compound 114, reference compound] | 68.6 | 13.1 | 46.9 | 74.1 |
| 14.8 | > 30000 | > 26900 |  | CC(C)n1c(=O)n(C)c2cnc3ccc(-c4ccc(OCCN(C)C)cc4)cc3c21 [Example 5, 8-[4-[2-(Dimethylamino)ethoxy]phenyl]-1-isopropyl-3-methyl-imidazo[4,5-c]quinolin-2-one] |  |  |  |  |
|  | > 30000 | 311 | 1420 | CN(C)CCCOc1ccc(-c2ccc3ncc4c(c3c2)n([C@@H]2CCCOC2)c(=O)n4C)cc1 [Example 8, 8-[4-[3-(dimethylamino)propoxy]phenyl]-3-methyl-1-[(3R)-tetrahydropyran-3-yl]imidazo[4,5-c]quinolin-2-one] |  |  |  |  |
|  | > 30000 | 15200 |  | CN(C)CCCOc1ccc(-c2ccc3ncc4c(c3c2)n([C@H]2CCCOC2)c(=O)n4C)cc1 [Example 9, 8-[4-[3-(dimethylamino)propoxy]phenyl]-3-methyl-1-[(3S)-tetrahydropyran-3-yl]imidazo[4,5-c]quinolin-2-one] |  |  |  |  |
| 1.88 | > 30000 | 20400 | 5560 | CO[C@H]1C[C@@H](n2c(=O)n(C)c3cnc4cc(F)c(-c5ccc(OCCCN(C)C)cc5)cc4c32)C1 [Example 12, 8-[4-[3-(dimethylamino)propoxy]phenyl]-7-fluoro-1-(cis3-methoxycyclobutyl)-3-methyl-imidazo[4,5-c]quinolin-2-one] |  |  |  |  |
| 14.4 | > 30000 | > 30000 | 5530 | CN(C)CCOc1ccc(-c2ccc3ncc4c(c3c2)n([C@H]2CCCOC2)c(=O)n4C)cc1 [Example 47, 8-[4-[2-(Dimethylamino)ethoxy]phenyl]-3-methyl-1-[(3S)-tetrahydropyran-3-yl]imidazo[4,5-c]quinolin-2-one] |  |  |  |  |
